Measured values from the supplement of paper PMC10307832.

Key:
Test in all cases: relative viability (nuclei count vs DMSO), 5 days (fraction); higher = more cells survive
[1] = compound: OCc1c[nH]c2ccccc12 [Indole-3-carbinol] + C[C@@H](Oc1cc(-c2cnn(C3CCNCC3)c2)cnc1N)c1c(Cl)ccc(F)c1Cl [Crizotinib] (partner 1 µM)
How it was run: (§1)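 Medians of duplicate plates are given as relative viability. That measure is the nuclei count in treated wells divided by the count in vehicle wells. Counts were taken on 4× images of lung cancer cell lines in 1536-well plates, 5 days after pin-tool dosing the day after seeding with one drug alone or a fixed anchor-drug dose plus five library-drug doses (not always all listed) in √10 steps.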

[2] = compound: OCc1c[nH]c2ccccc12 [Indole-3-carbinol] + C[C@]1(O)C[C@@H](c2nc(-c3ccc4ccc(-c5ccccc5)nc4c3)c3c(N)nccn32)C1 [Linsitinib] (partner 1 µM)
How it was run: as §1

[3] = compound: OCc1c[nH]c2ccccc12 [Indole-3-carbinol] + CCNC(=O)c1noc(-c2cc(C(C)C)c(O)cc2O)c1-c1ccc(CN2CCOCC2)cc1 [Luminespib] (partner 0.01 µM)
How it was run: as §1

[4] = compound: OCc1c[nH]c2ccccc12 [Indole-3-carbinol] + O=C(CCCCCCC(=O)Nc1ccccc1)NO [Vorinostat] (partner 1 µM)
How it was run: as §1

[5] = compound: OCc1c[nH]c2ccccc12 [Indole-3-carbinol]
How it was run: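 Five library-drug doses spaced by √10 were pinned onto vehicle-anchored 1536-well plates of lung cancer cell lines that had been kept overnight at 37 °C. Cells went 5 days without medium change, then were fixed, permeabilised and Hoechst-stained together, imaged at 4× and counted by MetaXpress. Viability is the ratio of treated-well to vehicle-well nuclei, taken as a median over plates. Plates required control CV below 25% and at least one doubling.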

201T
relative viability ([1]; first compound 0.253 µM): 1.03 | relative viability ([1]; first compound 0.8 µM): 1.02 | relative viability ([1]; first compound 2.53 µM): 1.07 | relative viability ([1]; first compound 8 µM): 1.01 | relative viability ([2]; first compound 0.253 µM): 1.03 | relative viability ([2]; first compound 0.8 µM): 0.975 | relative viability ([2]; first compound 2.53 µM): 1.1 | relative viability ([2]; first compound 8 µM): 1.05 | relative viability ([3]; first compound 0.253 µM): 1.03 | relative viability ([3]; first compound 0.8 µM): 1.01 | relative viability ([3]; first compound 2.53 µM): 1.07 | relative viability ([3]; first compound 8 µM): 1 | relative viability ([4]; first compound 0.253 µM): 1.1 | relative viability ([4]; first compound 0.8 µM): 0.88 | relative viability ([4]; first compound 2.53 µM): 0.978 | relative viability ([4]; first compound 8 µM): 0.927 | relative viability ([5]; 0.253 µM): 1.05 | relative viability ([5]; 0.8 µM): 0.976 | relative viability ([5]; 2.53 µM): 0.953 | relative viability ([5]; 8 µM): 0.986

A549
relative viability ([1]; first compound 0.253 µM): 0.712 | relative viability ([1]; first compound 0.8 µM): 0.914 | relative viability ([1]; first compound 2.53 µM): 0.819 | relative viability ([1]; first compound 8 µM): 0.765 | relative viability ([2]; first compound 0.253 µM): 0.656 | relative viability ([2]; first compound 0.8 µM): 0.578 | relative viability ([2]; first compound 2.53 µM): 0.697 | relative viability ([2]; first compound 8 µM): 0.545 | relative viability ([5]; 0.253 µM): 0.951 | relative viability ([5]; 0.8 µM): 1.03 | relative viability ([5]; 2.53 µM): 1.02 | relative viability ([5]; 8 µM): 0.91

A-427
relative viability ([1]; first compound 0.253 µM): 0.888 | relative viability ([1]; first compound 0.8 µM): 0.847 | relative viability ([1]; first compound 2.53 µM): 1.18 | relative viability ([1]; first compound 8 µM): 0.828 | relative viability ([2]; first compound 0.253 µM): 1.1 | relative viability ([2]; first compound 0.8 µM): 1.06 | relative viability ([2]; first compound 2.53 µM): 1.09 | relative viability ([2]; first compound 8 µM): 1.08 | relative viability ([3]; first compound 0.253 µM): 0.932 | relative viability ([3]; first compound 0.8 µM): 0.96 | relative viability ([3]; first compound 2.53 µM): 0.908 | relative viability ([3]; first compound 8 µM): 0.895 | relative viability ([4]; first compound 0.253 µM): 0.836 | relative viability ([4]; first compound 0.8 µM): 0.818 | relative viability ([4]; first compound 2.53 µM): 0.86 | relative viability ([4]; first compound 8 µM): 0.825 | relative viability ([5]; 0.253 µM): 0.96 | relative viability ([5]; 0.8 µM): 0.95 | relative viability ([5]; 2.53 µM): 0.982 | relative viability ([5]; 8 µM): 0.97

ABC-1
relative viability ([1]; first compound 0.253 µM): 0.973 | relative viability ([1]; first compound 0.8 µM): 0.925 | relative viability ([1]; first compound 2.53 µM): 1.39 | relative viability ([1]; first compound 8 µM): 1.33 | relative viability ([2]; first compound 0.253 µM): 0.931 | relative viability ([2]; first compound 0.8 µM): 1.04 | relative viability ([2]; first compound 2.53 µM): 0.82 | relative viability ([2]; first compound 8 µM): 0.706 | relative viability ([3]; first compound 0.8 µM): 0.696 | relative viability ([3]; first compound 2.53 µM): 0.803 | relative viability ([3]; first compound 8 µM): 0.509 | relative viability ([4]; first compound 0.253 µM): 1.59 | relative viability ([4]; first compound 0.8 µM): 1.05 | relative viability ([4]; first compound 2.53 µM): 1.23 | relative viability ([4]; first compound 8 µM): 1.1 | relative viability ([5]; 0.253 µM): 0.816 | relative viability ([5]; 0.8 µM): 0.995 | relative viability ([5]; 2.53 µM): 1.12 | relative viability ([5]; 8 µM): 0.955

BEN
relative viability ([1]; first compound 0.253 µM): 0.857 | relative viability ([1]; first compound 0.8 µM): 0.722 | relative viability ([1]; first compound 2.53 µM): 0.917 | relative viability ([1]; first compound 8 µM): 0.743 | relative viability ([2]; first compound 0.253 µM): 0.863 | relative viability ([2]; first compound 0.8 µM): 0.827 | relative viability ([2]; first compound 2.53 µM): 0.84 | relative viability ([2]; first compound 8 µM): 0.847 | relative viability ([3]; first compound 0.253 µM): 0.346 | relative viability ([3]; first compound 0.8 µM): 0.188 | relative viability ([3]; first compound 2.53 µM): 0.377 | relative viability ([3]; first compound 8 µM): 0.379 | relative viability ([4]; first compound 0.253 µM): 0.512 | relative viability ([4]; first compound 0.8 µM): 0.512 | relative viability ([4]; first compound 2.53 µM): 0.63 | relative viability ([4]; first compound 8 µM): 0.631 | relative viability ([5]; 0.253 µM): 0.941 | relative viability ([5]; 0.8 µM): 0.998 | relative viability ([5]; 2.53 µM): 1.03 | relative viability ([5]; 8 µM): 0.91

CAL-12T
relative viability ([1]; first compound 0.253 µM): 0.657 | relative viability ([1]; first compound 0.8 µM): 0.866 | relative viability ([1]; first compound 2.53 µM): 0.718 | relative viability ([1]; first compound 8 µM): 0.639 | relative viability ([2]; first compound 0.253 µM): 0.835 | relative viability ([2]; first compound 0.8 µM): 0.846 | relative viability ([2]; first compound 2.53 µM): 0.832 | relative viability ([2]; first compound 8 µM): 0.71 | relative viability ([3]; first compound 0.253 µM): 0.393 | relative viability ([3]; first compound 0.8 µM): 0.533 | relative viability ([3]; first compound 2.53 µM): 0.592 | relative viability ([3]; first compound 8 µM): 0.767 | relative viability ([4]; first compound 0.253 µM): 0.844 | relative viability ([4]; first compound 0.8 µM): 0.808 | relative viability ([4]; first compound 2.53 µM): 0.908 | relative viability ([4]; first compound 8 µM): 0.741 | relative viability ([5]; 0.253 µM): 0.971 | relative viability ([5]; 0.8 µM): 1.07 | relative viability ([5]; 2.53 µM): 0.986 | relative viability ([5]; 8 µM): 0.922

COR-L23
relative viability ([1]; first compound 0.253 µM): 0.751 | relative viability ([1]; first compound 0.8 µM): 0.724 | relative viability ([1]; first compound 2.53 µM): 0.748 | relative viability ([1]; first compound 8 µM): 0.485 | relative viability ([2]; first compound 0.253 µM): 0.962 | relative viability ([2]; first compound 0.8 µM): 0.862 | relative viability ([2]; first compound 2.53 µM): 0.993 | relative viability ([2]; first compound 8 µM): 0.786 | relative viability ([3]; first compound 0.253 µM): 0.74 | relative viability ([3]; first compound 0.8 µM): 0.754 | relative viability ([3]; first compound 2.53 µM): 0.712 | relative viability ([3]; first compound 8 µM): 0.512 | relative viability ([4]; first compound 0.253 µM): 0.445 | relative viability ([4]; first compound 0.8 µM): 0.492 | relative viability ([4]; first compound 2.53 µM): 0.459 | relative viability ([4]; first compound 8 µM): 0.371 | relative viability ([5]; 0.253 µM): 1.06 | relative viability ([5]; 0.8 µM): 1.09 | relative viability ([5]; 2.53 µM): 1.08 | relative viability ([5]; 8 µM): 0.934

COR-L 105
relative viability ([1]; first compound 0.253 µM): 0.93 | relative viability ([1]; first compound 0.8 µM): 0.681 | relative viability ([1]; first compound 2.53 µM): 0.781 | relative viability ([1]; first compound 8 µM): 0.731 | relative viability ([2]; first compound 0.253 µM): 0.693 | relative viability ([2]; first compound 0.8 µM): 0.767 | relative viability ([2]; first compound 2.53 µM): 0.99 | relative viability ([2]; first compound 8 µM): 0.65 | relative viability ([3]; first compound 0.253 µM): 0.758 | relative viability ([3]; first compound 0.8 µM): 0.723 | relative viability ([3]; first compound 2.53 µM): 0.651 | relative viability ([3]; first compound 8 µM): 0.656 | relative viability ([4]; first compound 0.253 µM): 0.916 | relative viability ([4]; first compound 0.8 µM): 0.847 | relative viability ([4]; first compound 2.53 µM): 0.73 | relative viability ([4]; first compound 8 µM): 0.862 | relative viability ([5]; 0.253 µM): 0.964 | relative viability ([5]; 0.8 µM): 0.845 | relative viability ([5]; 2.53 µM): 0.958 | relative viability ([5]; 8 µM): 0.844
